Experimental findings from patent publication US20250320194A1, “PHARMACEUTICALLY ACCEPTABLE SALT AND CRYSTAL FORM OF FUSED PYRIDINE RING DERIVATIVE AND PREPARATION METHOD THEREFOR” (Jiangsu Hengrui Pharmaceuticals Co., Ltd., priority 2021, published 2025) are described below.

Data set [1] in a line: Hygroscopicity of salt crystal forms (DVS, 25° C.). The class given is physicochemical. Conditions: for Hygroscopicity 0.0% RH-95.0% RH / Hygroscopicity 20.0% RH-80.0% RH: DVS, 25° C.; for Crystal form: after DVS. The procedure:
The test adopts SMS DVS Advantage, at 25° C., with a humidity range of 0 to 95% and a step of 10%. The judgment standard is that the dM/dT of each gradient mass change is less than 0.002%, TMAX is 360 minutes, and the cycle is two times. • 5. Cation chromatography • Instrument model: DIONEX AQUION ion chromatograph, USA • Detection method: conductivity; separation column: IonPac CS16-CG16 • Eluent: MSA 20Mm • Flow rate: 1.0 ml/min • 6. Anion chromatography • Instrument model: DIONEX INTEGRION HPIC ion chromatograph, USA • Detection method: conductivity; separation column: DionexIonPac™-AS11-HC • Eluent: EGC-500-KOH • Flow rate: 1.5 ml/min
Using Surface Measurement Systems advantage, at 25° C., the humidity starts from 50%, the humidity range is 0% to 95%, the step is 10%. The judgment standard was that the dM/dT of each gradient mass change is less than 0.002%, TMAX360 min, and the cycle was two times. The hygroscopicity of different salt crystal forms of the compound of formula I was investigated respectively.

The nature of data set [2]: Stability under influencing factors (high temperature, high humidity, open, 30 days).

The structures appear in SMILES notation.

With `CC(C)(C#Cc1nc(C(Cc2cc(F)cc(F)c2)NC(=O)Cn2nc(C(F)(F)F)c3c2C(F)(F)C2CC32)c(-c2ccc(Cl)c3c([N-]S(C)(=O)=O)nn(CC(F)(F)F)c23)c2c1CCC2)S(C)(=O)=O.[Na+]` (centres unmarked) [Crystal form IV of the sodium salt], in data set [1], the “Hygroscopicity 0.0% RH-95.0% RH” value is given as 1.03%, the “Hygroscopicity 20.0% RH-80.0% RH” value came out at 0.45% and the Crystal form entry is “changed”.

As for `CC(C)(C#Cc1nc(C(Cc2cc(F)cc(F)c2)NC(=O)Cn2nc(C(F)(F)F)c3c2C(F)(F)C2CC32)c(-c2ccc(Cl)c3c([N-]S(C)(=O)=O)nn(CC(F)(F)F)c23)c2c1CCC2)S(C)(=O)=O.C[N+](C)(C)CCO` (centres unmarked) [Crystal form B of the choline salt], the “Hygroscopicity 0.0% RH-95.0% RH” value in data set [1] came out at 9.92%. In addition, in data set [1], the “Hygroscopicity 20.0% RH-80.0% RH” value amounted to 5.96%. For the same molecule, the Crystal form entry in data set [1] is on record as “Unchanged”; in data set [2] (40° C., 5 days), “Unchanged”; in data set [2] (40° C., 10 days), “Unchanged”; in data set [2] (40° C., 30 days), “Unchanged”; in data set [2] (60° C., 5 days), “Unchanged”; in data set [2] (60° C., 10 days), “Unchanged”. Also, the Crystal form entry in data set [2] (60° C., 30 days) is listed as “Unchanged”; in data set [2] (75% RH, 5 days), “Unchanged”; in data set [2] (75% RH, 10 days) it was “Unchanged”; in data set [2] (75% RH, 30 days), “Unchanged”; in data set [2] (92.5% RH, 5 days), “Unchanged”; in data set [2] (92.5% RH, 10 days), “Unchanged”. For the same molecule, in data set [2] (92.5% RH, 30 days), the Crystal form entry is on record as “Unchanged”. Further, the “Color, properties” value was “White solid” in data set [2] (40° C., 5 days); “White solid” in data set [2] (40° C., 10 days); “White solid” in data set [2] (40° C., 30 days); “White solid” in data set [2] (60° C., 5 days); “White solid” in data set [2] (60° C., 10 days); “White solid” in data set [2] (60° C., 30 days). Moreover, the “Color, properties” value is recorded as “White solid” in data set [2] (75% RH, 5 days); “White solid” in data set [2] (75% RH, 10 days); “White solid” in data set [2] (75% RH, 30 days); “White solid” in data set [2] (92.5% RH, 5 days); “White solid” in data set [2] (92.5% RH, 10 days); “White solid” in data set [2] (92.5% RH, 30 days). Further, the “Color, properties” value in data set [2] (Start, 0 days) is on record as “White solid”. For the same molecule, the Purity % was 98.34% in data set [2] (40° C., 5 days); 98.33% in data set [2] (40° C., 10 days); 98.35% in data set [2] (40° C., 30 days); 98.39% in data set [2] (60° C., 5 days); 98.36% in data set [2] (60° C., 10 days); 98.36% in data set [2] (60° C., 30 days). For the same molecule, the Purity % was found to be 98.35% in data set [2] (75% RH, 5 days); 98.35% in data set [2] (75% RH, 10 days); 98.36% in data set [2] (75% RH, 30 days); 98.45% in data set [2] (92.5% RH, 5 days); 98.34% in data set [2] (92.5% RH, 10 days); 98.35% in data set [2] (92.5% RH, 30 days). Further, in data set [2] (Start, 0 days), the Purity % amounted to 98.34%.
